Values of other authors as cited in patent publication US20140316534A1, “STENT” (Photocure ASA, priority 2011, published 2014).

Test system: dysplastic tissue in Barrett's esophagus
[1] = systemic application, higher doses of 20 mg/kg and 30 mg/kg

## NCC(=O)CCC(=O)O [5-ALA, 5-amino-4-oxo-pentanoic acid]
Systemic application of 20 mg/kg or more
  side effects: increasing side effects at high dosages
[1]
  sensitivity for detection of dysplastic tissue: increase the sensitivity
  specificity (rate of false positive fluorescence): poor
